Laboratory results reported in PubChem BioAssay AID1963840 (Molecular Pharmacology Branch, DTP, NCI, 2024).

Test system: 695427-040-R-J1-PDC complex spheroid viability
Assay: Anticancer human tumor 695427-040-R-J1-PDC patient-derived colon adenocarcinoma cell line growth inhibition [POLQ]
Conditions: for IC50: curve of first compound; for viability, T/C: stronger effect = lower value
Procedure, shortened: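 PDC + HUVEC + MSC complex spheroids; POLQ inhibitors ± partner drugs; top conc. at/near clinical Cmax, else 10 microM (SN-38 1 microM), half-log dilutions; 37 degrees C, 5% CO2.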

[1] = second compound 0.0316 µM, first compound 0.0316 µM
[2] = second compound 0.0316 µM, first compound 0.1 µM
[3] = second compound 0.0316 µM, first compound 0.316 µM
[4] = second compound 0.0316 µM, first compound 1 µM
[5] = second compound 0.0316 µM, first compound 3.16 µM
[6] = second compound 0.0316 µM, first compound 10 µM
[7] = second compound 0.1 µM, first compound 0.0316 µM
[8] = second compound 0.1 µM, first compound 0.1 µM
[9] = second compound 0.1 µM, first compound 0.316 µM
[10] = second compound 0.1 µM, first compound 1 µM
[11] = second compound 0.1 µM, first compound 3.16 µM
[12] = second compound 0.1 µM, first compound 10 µM
[13] = second compound 0.316 µM, first compound 0.0316 µM
[14] = second compound 0.316 µM, first compound 0.1 µM
[15] = second compound 0.316 µM, first compound 0.316 µM
[16] = second compound 0.316 µM, first compound 1 µM
[17] = second compound 0.316 µM, first compound 3.16 µM
[18] = second compound 0.316 µM, first compound 10 µM
[19] = second compound 1 µM, first compound 0.0316 µM
[20] = second compound 1 µM, first compound 0.1 µM
[21] = second compound 1 µM, first compound 0.316 µM
[22] = second compound 1 µM, first compound 1 µM
[23] = second compound 1 µM, first compound 3.16 µM
[24] = second compound 1 µM, first compound 10 µM
[25] = second compound 3.16 µM, first compound 0.0316 µM
[26] = second compound 3.16 µM, first compound 0.1 µM
[27] = second compound 3.16 µM, first compound 0.316 µM
[28] = second compound 3.16 µM, first compound 1 µM
[29] = second compound 3.16 µM, first compound 3.16 µM
[30] = second compound 3.16 µM, first compound 10 µM
[31] = second compound 10 µM, first compound 0.0316 µM
[32] = second compound 10 µM, first compound 0.1 µM
[33] = second compound 10 µM, first compound 0.316 µM
[34] = second compound 10 µM, first compound 1 µM
[35] = second compound 10 µM, first compound 3.16 µM
[36] = second compound 10 µM, first compound 10 µM
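Note: spheroids exposed to compounds for seven days.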
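Throughout, for viability, T/C: 100% = DMSO vehicle control viability.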

`CC(C)n1c(=O)n(C)c2cnc3cc(F)c(-c4ccc(OCCCN5CCCCC5)nc4)cc3c21` + Nc1ccc(C#CCN(C(=O)Cc2ncc(C(F)(F)F)cc2C(F)(F)F)c2ccc(F)cc2)nn1 showed an IC50 (second compound 0.0316 µM) greater than 10 µM, an IC50 (second compound 0.1 µM) greater than 10 µM and an IC50 (second compound 0.316 µM) greater than 10 µM. For the same compound, the IC50 (second compound 1 µM) was greater than 10 µM, the IC50 (second compound 3.16 µM) was greater than 10 µM and the IC50 (second compound 10 µM) was greater than 10 µM. For the same compound, the viability, T/C [1] was 103%, the viability, T/C [2] was 105% and the viability, T/C [3] was 112%. For the same compound, the viability, T/C [4] was 110%, the viability, T/C [5] was 100% and the viability, T/C [6] was 91.4%. It also gave a viability, T/C [7] of 106%, a viability, T/C [8] of 109% and a viability, T/C [9] of 115%. It also gave a viability, T/C [10] of 107%, a viability, T/C [11] of 108% and a viability, T/C [12] of 81.9%. For the same compound, the viability, T/C [13] was 114%, the viability, T/C [14] was 112% and the viability, T/C [15] was 103%. The viability, T/C [16] was 110%, the viability, T/C [17] was 106% and the viability, T/C [18] was 91.8%. For the same compound, the viability, T/C [19] was 102%, the viability, T/C [20] was 98.9% and the viability, T/C [21] was 116%. The viability, T/C [22] was 106%, the viability, T/C [23] was 115% and the viability, T/C [24] was 82.4%. For the same compound, the viability, T/C [25] was 107%, the viability, T/C [26] was 100% and the viability, T/C [27] was 105%. For the same compound, the viability, T/C [28] was 104%, the viability, T/C [29] was 96% and the viability, T/C [30] was 79.6%. The viability, T/C [31] was 99.7%, the viability, T/C [32] was 90.1% and the viability, T/C [33] was 101%. For the same compound, the viability, T/C [34] was 108%, the viability, T/C [35] was 95.4% and the viability, T/C [36] was 88%.

`CC1COCCN1c1cc(-c2ccnn2C)c2ccnc(-c3ccn[nH]3)c2n1` (stereo not drawn) + Nc1ccc(C#CCN(C(=O)Cc2ncc(C(F)(F)F)cc2C(F)(F)F)c2ccc(F)cc2)nn1 was tested, and the IC50 (second compound 0.0316 µM) was greater than 10 µM, the IC50 (second compound 0.1 µM) was greater than 10 µM and the IC50 (second compound 0.316 µM) was greater than 10 µM. It also gave an IC50 (second compound 1 µM) greater than 10 µM, an IC50 (second compound 3.16 µM) greater than 10 µM and an IC50 (second compound 10 µM) greater than 10 µM. The viability, T/C [1] was 92.9%, the viability, T/C [2] was 91.8% and the viability, T/C [3] was 72.9%. For the same compound, the viability, T/C [4] was 66.8%, the viability, T/C [5] was 61.6% and the viability, T/C [6] was 56.3%. For the same compound, the viability, T/C [7] was 117%, the viability, T/C [8] was 89.1% and the viability, T/C [9] was 74.3%. The viability, T/C [10] was 66.3%, the viability, T/C [11] was 61.7% and the viability, T/C [12] was 56.2%. For the same compound, the viability, T/C [13] was 105%, the viability, T/C [14] was 92.7% and the viability, T/C [15] was 71%. It also gave a viability, T/C [16] of 62.5%, a viability, T/C [17] of 65% and a viability, T/C [18] of 56.9%. For the same compound, the viability, T/C [19] was 108%, the viability, T/C [20] was 83.5% and the viability, T/C [21] was 73.6%. The viability, T/C [22] was 65.6%, the viability, T/C [23] was 59.7% and the viability, T/C [24] was 51.4%. For the same compound, the viability, T/C [25] was 102%, the viability, T/C [26] was 84.3% and the viability, T/C [27] was 70.3%. The viability, T/C [28] was 61.1%, the viability, T/C [29] was 61.8% and the viability, T/C [30] was 52.2%. The viability, T/C [31] was 92%, the viability, T/C [32] was 80.3% and the viability, T/C [33] was 64.2%. It also gave a viability, T/C [34] of 57.8%, a viability, T/C [35] of 58.5% and a viability, T/C [36] of 58%.

For `CC1COCCN1c1cc(C2(S(C)(=N)=O)CC2)nc(-c2ccnc3[nH]ccc23)n1` (stereo not drawn) + Nc1ccc(C#CCN(C(=O)Cc2ncc(C(F)(F)F)cc2C(F)(F)F)c2ccc(F)cc2)nn1, the IC50 (second compound 0.0316 µM) was greater than 10 µM, the IC50 (second compound 0.1 µM) was greater than 10 µM and the IC50 (second compound 0.316 µM) was greater than 10 µM. The IC50 (second compound 1 µM) was greater than 10 µM, the IC50 (second compound 3.16 µM) was greater than 10 µM and the IC50 (second compound 10 µM) was greater than 10 µM. It also gave a viability, T/C [1] of 110%, a viability, T/C [2] of 103% and a viability, T/C [3] of 99.4%. The viability, T/C [4] was 106%, the viability, T/C [5] was 99.6% and the viability, T/C [6] was 96.2%. It also gave a viability, T/C [7] of 108%, a viability, T/C [8] of 100% and a viability, T/C [9] of 97.4%. The viability, T/C [10] was 98.1%, the viability, T/C [11] was 112% and the viability, T/C [12] was 94.5%. It also gave a viability, T/C [13] of 96.8%, a viability, T/C [14] of 104% and a viability, T/C [15] of 93.9%. For the same compound, the viability, T/C [16] was 104%, the viability, T/C [17] was 99.9% and the viability, T/C [18] was 82.2%. It also gave a viability, T/C [19] of 102%, a viability, T/C [20] of 101% and a viability, T/C [21] of 102%. The viability, T/C [22] was 102%, the viability, T/C [23] was 102% and the viability, T/C [24] was 86.6%. For the same compound, the viability, T/C [25] was 100%, the viability, T/C [26] was 95.1% and the viability, T/C [27] was 99.3%. For the same compound, the viability, T/C [28] was 101%, the viability, T/C [29] was 95.4% and the viability, T/C [30] was 88.2%. The viability, T/C [31] was 104%, the viability, T/C [32] was 97.9% and the viability, T/C [33] was 95%. It also gave a viability, T/C [34] of 96.7%, a viability, T/C [35] of 91.6% and a viability, T/C [36] of 74.9%.

With `COc1ccc([C@@H](O)c2cc(-c3ncnc4cc(N5CCOCC5)ccc34)c(F)cc2Cl)nn1` + Nc1ccc(C#CCN(C(=O)Cc2ncc(C(F)(F)F)cc2C(F)(F)F)c2ccc(F)cc2)nn1 the IC50 (second compound 0.0316 µM) was greater than 10 µM, the IC50 (second compound 0.1 µM) was greater than 10 µM and the IC50 (second compound 0.316 µM) was greater than 10 µM. For the same compound, the IC50 (second compound 1 µM) was greater than 10 µM, the IC50 (second compound 3.16 µM) was greater than 10 µM and the IC50 (second compound 10 µM) was greater than 10 µM. The viability, T/C [1] was 101%, the viability, T/C [2] was 91.6% and the viability, T/C [3] was 99.2%. For the same compound, the viability, T/C [4] was 89.7%, the viability, T/C [5] was 84.3% and the viability, T/C [6] was 60.7%. For the same compound, the viability, T/C [7] was 105%, the viability, T/C [8] was 108% and the viability, T/C [9] was 98.8%. The viability, T/C [10] was 89.3%, the viability, T/C [11] was 86.5% and the viability, T/C [12] was 54%. For the same compound, the viability, T/C [13] was 108%, the viability, T/C [14] was 106% and the viability, T/C [15] was 99.7%. For the same compound, the viability, T/C [16] was 89.6%, the viability, T/C [17] was 89.9% and the viability, T/C [18] was 63.9%. For the same compound, the viability, T/C [19] was 108%, the viability, T/C [20] was 97.5% and the viability, T/C [21] was 91.1%. The viability, T/C [22] was 91%, the viability, T/C [23] was 86.2% and the viability, T/C [24] was 52.2%. It also gave a viability, T/C [25] of 101%, a viability, T/C [26] of 97.4% and a viability, T/C [27] of 99.2%. It also gave a viability, T/C [28] of 90.9%, a viability, T/C [29] of 78.3% and a viability, T/C [30] of 56.2%. It also gave a viability, T/C [31] of 101%, a viability, T/C [32] of 92.5% and a viability, T/C [33] of 90.1%. For the same compound, the viability, T/C [34] was 89.8%, the viability, T/C [35] was 82.1% and the viability, T/C [36] was 55.1%.
